From publication PMC5267425, “Identification of small molecule modulators of HIV-1 Tat and Rev protein accumulation” (Retrovirology, 2017)

System: cellular gene expression in HeLa rtTA HIV∆Mls cells

## Cc1cc(NCc2cccnc2)n2ncc(-c3ccc(Cl)cc3)c2n1 [Compound 791, 3-(4-chlorophenyl)-5-methyl-N-(3-pyridinylmethyl)pyrazolo[1,5-a]pyrimidin-7-amine]
  DCAF6 expression fold change: 0.581
  DCAF17 Mean fold change: 1.433
  DCI expression fold change: 1.321
  DCLRE1A expression fold change: 1.408
  DCXR expression fold change: 1.050
  DDB2 expression fold change: 1.399
  DDR1 expression fold change: 0.690
  DDX10 expression fold change: 1.177
  DDX31 Mean fold change: 1.434
  DDX50 expression fold change: 1.253
  DENND4B expression fold change: 1.243
  DET1 expression fold change: 1.366
  DGCR2 expression fold change: 0.881
  DGKQ expression fold change: 1.343
  DHX35 expression fold change: 1.203
  DLG4 expression fold change: 1.263
  DMAP1 expression fold change: 0.891
  DNAH14 Mean fold change: 1.678
  DNAH17 Mean fold change: 1.839
  DNAJA3 Mean fold change: 1.796
  DNAJB14 expression fold change: 1.264
  DNASE2 expression fold change: 1.378
  DNMT3L expression fold change: 0.498
  DOCK1 expression fold change: 0.758
  DOCK8 expression fold change: 0.595
  DPH5 Mean fold change: 1.479
  DPM2 expression fold change: 1.136
  DPYSL2 Mean fold change: 1.729
  DSE expression fold change: 0.858
  DUS4L Mean fold change: 1.822
  DUSP1 expression fold change: 0.730
  DUSP8 expression fold change: 0.576
  DYM expression fold change: 1.260
  DYNC1I2 expression fold change: 0.857
  DYNLT1 expression fold change: 1.171
  DYRK2 expression fold change: 1.206
  EARS2 expression fold change: 1.134
  ECT2 expression fold change: 0.716
  EDA2R Mean fold change: 1.924
  EDEM1 expression fold change: 1.273
  EFCAB2 expression fold change: 1.159
  EIF1 Mean fold change: 1.516
  EIF2S2 Mean fold change: 1.734
  EIF2S3 expression fold change: 1.243
  EIF4EBP1 Mean fold change: 2.239
  ELMO2 expression fold change: 1.211
  ELP3 expression fold change: 1.135
  EMP2 expression fold change: 0.740
  ENOPH1 Mean fold change: 1.427
  EPB41L2 expression fold change: 0.862
  EPB41L4A expression fold change: 0.788
  EPB41 Mean fold change: 1.417
  EPM2AIP1 expression fold change: 1.093
  EPRS expression fold change: 1.271
  ERCC2 expression fold change: 0.790
  ERGIC1 expression fold change: 1.185
  ERICH1 expression fold change: 0.941
  ERMAP Mean fold change: 1.499
  ERRFI1 Mean fold change: 1.452
  ESAM expression fold change: 0.673
  ESCO1 expression fold change: 1.256
  ESF1 expression fold change: 1.072
  ESRRA expression fold change: 1.275
  ESYT2 expression fold change: 0.824
  ETV4 Mean fold change: 4.291
  ETV6 expression fold change: 1.253
  F2R expression fold change: 0.551
  FAIM3 expression fold change: 1.351
  FAM13B expression fold change: 0.771
  FAM27E2 Mean fold change: 2.360
  FAM83D expression fold change: 0.622
  FAM83G expression fold change: 1.328
  FAM86A Mean fold change: 1.567
  FAM86B1 Mean fold change: 2.493
  FAM86B2 Mean fold change: 2.843
  FAM86C Mean fold change: 1.599
  FAM102A expression fold change: 1.402
  FAM107B expression fold change: 1.234
  FAM114A1 expression fold change: 0.853
  FAM119B expression fold change: 1.218
  FAM127A expression fold change: 0.756
  FAM133B expression fold change: 1.056
  FAM176B expression fold change: 1.310
  FAM179B expression fold change: 1.253
  FAM192A expression fold change: 1.096
  FAM195B expression fold change: 0.859
  FAM199X expression fold change: 1.145
  FAR1 expression fold change: 1.245
  FARP1 expression fold change: 0.824
  FASTKD2 expression fold change: 1.173
  FBXL2 expression fold change: 0.756
  FBXO22 expression fold change: 1.399
  FBXO28 expression fold change: 1.101
  FBXO45 Mean fold change: 1.434
  FBXW4 expression fold change: 1.381
  FBXW11 expression fold change: 1.080
  FDFT1 expression fold change: 0.649
  FECH expression fold change: 0.957
  FEM1C expression fold change: 1.387
  FEZ2 expression fold change: 1.355
  FGFR3 expression fold change: 0.612
  FLCN expression fold change: 1.383
  FLII expression fold change: 0.919
  FLYWCH1 expression fold change: 1.367
  FOSL2 expression fold change: 1.375
  FOXF1 expression fold change: 1.318
  FOXJ2 expression fold change: 1.277
  FOXJ3 expression fold change: 1.187
  FOXN2 expression fold change: 1.082
  FRAT1 expression fold change: 0.900
  FSTL1 expression fold change: 0.717
  FUBP1 expression fold change: 0.781
  FXYD5 expression fold change: 1.215
  FZR1 expression fold change: 0.784
  GABARAPL2 expression fold change: 0.887
  GADD45A Mean fold change: 2.491
  GALNT2 expression fold change: 0.621
  GATA5 expression fold change: 1.360
  GATSL1 expression fold change: 0.637
  GBA2 expression fold change: 1.203
  GCC1 Mean fold change: 1.971
  GDF15 Mean fold change: 7.775
  GGA3 expression fold change: 1.172
  GJD3 expression fold change: 1.295
  GLCCI1 expression fold change: 0.781
  GLI2 expression fold change: 0.589
  GNA13 expression fold change: 1.223
  GNG10 expression fold change: 0.817
  GNL1 expression fold change: 1.145
  GOLGA5 expression fold change: 1.153
  GOLGA9P Mean fold change: 1.884
  GORAB expression fold change: 1.233
  GORASP1 expression fold change: 0.859
  GOSR1 expression fold change: 1.352
  GPC5 expression fold change: 1.250
  GPCPD1 Mean fold change: 2.287
  GPD1L expression fold change: 1.252
  GPR176 expression fold change: 0.771
  GPT2 Mean fold change: 2.731
  GRAMD1C expression fold change: 1.186
  GRB10 Mean fold change: 1.714
  GRINL1A Mean fold change: 1.542
  GRPEL2 Mean fold change: 1.903
  GTF2H3 expression fold change: 1.322
  GTF3C1 expression fold change: 0.813
  H3F3A expression fold change: 0.746
  HACL1 expression fold change: 0.803
  HADHA Mean fold change: 1.441
  HADHB Mean fold change: 1.600
  HAUS3 expression fold change: 1.330
  HAUS4 expression fold change: 1.250
  HAUS6 Mean fold change: 1.910
  HAX1 Mean fold change: 1.624
  HDAC1 expression fold change: 0.825
  HDHD2 expression fold change: 1.223
  HEBP1 expression fold change: 1.199
  HECTD1 expression fold change: 1.231
  HEG1 expression fold change: 0.638
  HIF1A expression fold change: 1.219
  HINT3 expression fold change: 1.199
  HIPK1 expression fold change: 1.092
  HIST1H3B expression fold change: 0.670
  HJURP expression fold change: 0.874
  HMGB3 expression fold change: 0.753
  HMGN3 expression fold change: 0.687
  HNRNPH2 expression fold change: 0.704
  HPS3 expression fold change: 1.235
  HRSP12 expression fold change: 1.297
  HSD17B1 expression fold change: 1.238
  HSPA9 Mean fold change: 2.175
  HSPB6 Mean fold change: 2.845
  HSPB8 expression fold change: 0.812
  IBTK expression fold change: 1.153
  ICAM1 Mean fold change: 1.829
  ICK expression fold change: 0.776
  ID3 expression fold change: 0.580
  IDH2 expression fold change: 0.637
  IDI1 expression fold change: 0.495
  IFNGR1 expression fold change: 1.224
  IFRD1 Mean fold change: 2.095
  IKBIP expression fold change: 0.658
  IMMT expression fold change: 1.075
  IMPA2 Mean fold change: 1.561
  INCENP expression fold change: 0.617
  INO80C expression fold change: 0.723
  INPP1 expression fold change: 1.347
  IPO13 expression fold change: 1.247
  IQCB1 expression fold change: 1.350
  ISCU Mean fold change: 1.477
  ITGA5 expression fold change: 1.145
  ITPKC expression fold change: 1.186
  IVNS1ABP expression fold change: 1.200
  JTB expression fold change: 1.203
  JUB expression fold change: 0.585
  KANK2 expression fold change: 0.798
  KCNJ2 Mean fold change: 1.873
  KCTD1 expression fold change: 1.252
  KCTD13 expression fold change: 1.373
  KCTD15 Mean fold change: 1.965
  KCTD20 expression fold change: 1.124
  KHDRBS1 expression fold change: 0.750
  KHSRP expression fold change: 0.864
  KIAA0232 expression fold change: 1.232
  KIAA0562 expression fold change: 1.119
  KIAA0649 expression fold change: 1.279
  KIAA0753 expression fold change: 1.283
  KIAA0895 expression fold change: 1.129
  KIAA1430 expression fold change: 1.140
  KIAA1826 expression fold change: 1.191
  KIAA2013 expression fold change: 0.927
  KIF3B expression fold change: 0.839
  KIF5C expression fold change: 0.782
  KIF11 expression fold change: 0.660
  KIF18B expression fold change: 0.771
  KIF20B expression fold change: 0.622
  KIFC1 expression fold change: 0.753
  KITLG expression fold change: 0.707
  KLF9 expression fold change: 0.665
  KLF11 Mean fold change: 1.487
  KLHDC3 expression fold change: 0.728
  KLHL35 Mean fold change: 1.651
  KPNA2 expression fold change: 0.620
  KRR1 expression fold change: 1.251
  LACE1 Mean fold change: 1.553
  LAPTM4B expression fold change: 0.781
  LARP6 Mean fold change: 3.094
  LARS expression fold change: 1.394
  LASS5 expression fold change: 0.895
  LGALS9 Mean fold change: 1.949
  LGTN expression fold change: 1.255
  LHPP Mean fold change: 1.532
  LIG3 expression fold change: 1.068
  LIN7B expression fold change: 1.185
  LMO7 expression fold change: 0.663
  LONP1 Mean fold change: 2.312
  LRP5L expression fold change: 1.303
  LRPPRC expression fold change: 1.312
  LRRC8D Mean fold change: 1.472
  LRRC16A expression fold change: 0.608
  LRRC37A3 Mean fold change: 1.746
  LRRC37B Mean fold change: 1.443
  LRSAM1 expression fold change: 1.153
  LYRM2 expression fold change: 1.176
  LYSMD1 expression fold change: 1.216
  LZTR1 expression fold change: 0.877
  MAGT1 expression fold change: 0.903
  MAK16 Mean fold change: 1.459
  MAML2 expression fold change: 0.717
  MANF expression fold change: 0.731
  MAP1B Mean fold change: 3.550
  MAP3K12 expression fold change: 1.348
  MAP3K14 expression fold change: 0.532
  MAP4K4 expression fold change: 0.822
